Laboratory results: patent US20250388605A1, “HETEROBIFUNCTIONAL COMPOUNDS AND METHODS OF TREATING DISEASE” (Halda Therapeutics OpCo, Inc., priority 2022, published 2025)

Assays:
[1] = tested on: T-Rex 293 cell line SC3 cells having increased expression of androgen receptor protein due to exposure to doxycycline; test: Cellular growth inhibition, T-Rex 293 SC3 cells with doxycycline (increased androgen receptor expression), CellTiter-Glo; type: cell-based; conditions: T-Rex 293 SC3 cells with 10 ng/mL doxycycline (increased androgen receptor expression), 72 hours, CellTiter-Glo 2.0
Method in brief: (§1)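 Doxycycline (10 ng/mL) was either included or omitted to toggle wild-type androgen receptor expression in SC3 cells, a T-Rex 293 clone, grown in stripped-serum, phenol red-free medium. After 72 hours with compound, viable cells were quantified by CellTiter-Glo 2.0.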

[2] = tested on: T-Rex 293 cell line SC3 cells lacking increased expression of androgen receptor protein; test: Cellular growth inhibition, T-Rex 293 SC3 cells without doxycycline (no increased androgen receptor expression), CellTiter-Glo; type: cell-based; conditions: T-Rex 293 SC3 cells not exposed to doxycycline (no increased androgen receptor expression), 72 hours
Method in brief: as §1

VCaP cells = test: Cellular growth inhibition assay for VCaP cells, CellTiter-Glo; type: cell-based, human; conditions: 72 hours
Method in brief: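 GI50 values come from four-parameter curve fits of luminescence data normalized to a zero baseline. Compound, in medium with 0.5% DMSO, was added one day after plating and left for 72 h before CellTiter-Glo 2.0 addition.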

T47D cells = test: Cellular Growth Inhibition Assay for T47D Cells (CellTiter-Glo); type: cell-based, human; conditions: 72 hours
Method in brief: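 GI50 values derive from four-parameter regression of CellTiter-Glo 2.0 luminescence, using zero luminescence as baseline. Human breast cancer T47D cells (3000/well; DMEM, 10% FBS, 0.2 units/mL insulin) were exposed for 72 h to compound dilutions at 0.5% DMSO, with dosing starting 24 h after seeding.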

| Compound | GI50 [1] [nM] | GI50 [2] [nM] | GI50 (VCaP cells) [nM] | GI50 (T47D cells) [nM] | GI50 (VCaP cells; Homo sapiens) [nM] | GI50 (T47D cells; Homo sapiens) [nM] |
| --- | --- | --- | --- | --- | --- | --- |
| Cn1cc(-c2cc(C(C)(C)O)ccc2Oc2cccc(OCCC3CC4(C3)CN(c3ncc(C(=O)N[C@H]5C(C)(C)[C@H](Oc6ccc(C#N)c(Cl)c6)C5(C)C)cn3)C4)c2F)c2cc[nH]c2c1=O [Compound I-210] | < 500 | < 500 | < 500 | 500 to 1500 |  |  |
| CN(C1CCN(c2ncc(C(=O)N[C@H]3C(C)(C)[C@H](Oc4ccc(C#N)c(Cl)c4)C3(C)C)cn2)CC1)C1CN(c2cccc(Oc3ccc(C(C)(C)O)cc3-c3cn(C)c(=O)c4[nH]ccc34)c2F)C1 [Compound I-230] | < 500 | 500 to 1500 | < 500 | < 500 |  |  |
| CCS(=O)(=O)c1ccc(OC(CCCCOC2CCN(c3ncc(C(=O)N[C@H]4C(C)(C)[C@H](Oc5ccc(C#N)c(Cl)c5)C4(C)C)cn3)CC2)C2CC2)c(-c2cn(C)c(=O)c3[nH]ccc23)c1 (some centres unmarked) [Compound I-234] | < 500 | < 500 | < 500 | < 500 |  |  |
| CCS(=O)(=O)c1ccc(OC(CCCCCN2CCN(c3ncc(C(=O)N[C@H]4C(C)(C)[C@H](Oc5ccc(C#N)c(Cl)c5)C4(C)C)cn3)CC2)C2CC2)c(-c2cn(C)c(=O)c3[nH]ccc23)c1 (some centres unmarked) [Compound I-235] | < 500 | < 500 | < 500 | < 500 |  |  |
| CCS(=O)(=O)c1ccc(OC(CCCOC2CCN(c3ncc(C(=O)N[C@H]4C(C)(C)[C@H](Oc5ccc(C#N)c(Cl)c5)C4(C)C)cn3)CC2)C2CC2)c(-c2cn(C)c(=O)c3[nH]ccc23)c1 (some centres unmarked) [Compound I-236] | < 500 | < 500 | < 500 | < 500 |  |  |
| Cn1cc(-c2cc(C(C)(C)O)ccc2OCC(CCCN2CCN(c3ncc(C(=O)N[C@H]4C(C)(C)[C@H](Oc5ccc(C#N)c(Cl)c5)C4(C)C)cn3)CC2)C2CC2)c2cc[nH]c2c1=O (some centres unmarked) [Compound I-237] | < 500 | 500 to 1500 |  |  | 500 to 1500 | 500 to 1500 |
| Cn1cc(-c2cc(C(C)(C)O)ccc2Oc2ccc(F)c(OCCN3CC4(C3)CN(c3ncc(C(=O)N[C@H]5C(C)(C)[C@H](Oc6ccc(C#N)c(Cl)c6)C5(C)C)cn3)C4)c2F)c2cc[nH]c2c1=O [Compound I-239] | < 500 | < 500 | < 500 | < 500 |  |  |
| Cn1cc(-c2cc(C(C)(C)O)ccc2Oc2cccc(N3CC(N(C4CC4)C4CCN(c5ncc(C(=O)N[C@H]6C(C)(C)[C@H](Oc7ccc(C#N)c(Cl)c7)C6(C)C)cn5)CC4)C3)c2F)c2cc[nH]c2c1=O [Compound I-240] | < 500 | > 3000 | 500 to 1500 | < 500 |  |  |
| Cn1cc(-c2cc(C(C)(C)O)ccc2Oc2cccc(N3CC(CN4CC5CC4CN5c4ncc(C(=O)N[C@H]5C(C)(C)[C@H](Oc6ccc(C#N)c(Cl)c6)C5(C)C)cn4)C3)c2F)c2cc[nH]c2c1=O (some centres unmarked) [Compound I-241] | < 500 | < 500 | < 500 | < 500 |  |  |
| CCS(=O)(=O)c1ccc(OCC(CCOC2CCN(c3ncc(C(=O)N[C@H]4C(C)(C)[C@H](Oc5ccc(C#N)c(Cl)c5)C4(C)C)cn3)CC2)C2CC2)c(-c2cn(C)c(=O)c3[nH]ccc23)c1 (some centres unmarked) [Compound I-242] | < 500 | < 500 | < 500 | < 500 |  |  |
| Cn1cc(-c2cc(C(C)(C)O)ccc2OC(CCCCCN2CCN(c3ncc(C(=O)NC4C(C)(C)C(Oc5ccc(C#N)c(Cl)c5)C4(C)C)cn3)CC2)C2CC2)c2cc[nH]c2c1=O (centres unmarked) [Compound I-243, N-[3-(3-chloro-4-cyano-phenoxy)-2,2,4,4-tetramethyl-cyclobutyl]-2-[4-[6-cyclopropyl-6-[4-(1-hydroxy-1-methyl-ethyl)-2-(6-methyl-7-oxo-1H-pyrrolo[2,3-c]pyridin-4-yl)phenoxy]hexyl]piperazin-1-yl]pyrimidine-5-carboxamide] | < 500 | 500 to 1500 |  |  | < 500 | 500 to 1500 |
| Cn1cc(-c2cc(C(C)(C)O)ccc2OC(CCCOC2CCN(c3ncc(C(=O)N[C@H]4C(C)(C)[C@H](Oc5ccc(C#N)c(Cl)c5)C4(C)C)cn3)CC2)C2CC2)c2cc[nH]c2c1=O (some centres unmarked) [Compound I-244] | < 500 | 500 to 1500 | < 500 | 500 to 1500 |  |  |
| Cn1cc(-c2cc(C(C)(C)O)ccc2Oc2ccc(C3(NC4CCN(c5ncc(C(=O)N[C@H]6C(C)(C)[C@H](Oc7ccc(C#N)c(Cl)c7)C6(C)C)cn5)CC4)COC3)cc2)c2cc[nH]c2c1=O [Compound I-246] | < 500 | < 500 | < 500 | 500 to 1500 |  |  |
| Cn1cc(-c2cc(S(C)(=O)=O)ccc2Oc2cccc(CCCC3CCN(c4ncc(C(=O)NC5C(C)(C)C(Oc6ccc(C#N)c(Cl)c6)C5(C)C)cn4)CC3)c2)c2cc[nH]c2c1=O (centres unmarked) [Compound I-249, N-[3-(3-chloro-4-cyano-phenoxy)-2,2,4,4-tetramethyl-cyclobutyl]-2-[4-[3-[3-[2-(6-methyl-7-oxo-1H-pyrrolo[2,3-c]pyridin-4-yl)-4-methyl-sulfonyl-phenoxy]phenyl]propyl]-1-piperidyl]pyrimidine-5-carboxamide] | < 500 | > 3000 |  |  | 500 to 1500 | 500 to 1500 |
| Cn1cc(-c2cc(S(C)(=O)=O)ccc2Oc2cccc(CCCC3CCN(c4ncc(C(=O)N[C@H]5C(C)(C)[C@H](Oc6ccc(C#N)c(Cl)c6)C5(C)C)cn4)CC3)c2F)c2cc[nH]c2c1=O [Compound I-250] | < 500 | > 3000 | 500 to 1500 | < 500 |  |  |
| Cn1cc(-c2cc(C(C)(C)O)ccc2OC(CCCCOC2CCN(c3ncc(C(=O)N[C@H]4C(C)(C)[C@H](Oc5ccc(C#N)c(Cl)c5)C4(C)C)cn3)CC2)C2CC2)c2cc[nH]c2c1=O (some centres unmarked) [Compound I-251] | < 500 | 500 to 1500 | 500 to 1500 | 500 to 1500 |  |  |
| CCS(=O)(=O)Cc1ccc(Oc2cccc(OCCCC3CCN(c4ncc(C(=O)N[C@H]5C(C)(C)[C@H](Oc6ccc(C#N)c(Cl)c6)C5(C)C)cn4)CC3)c2)c(-c2cn(C)c(=O)c3[nH]ccc23)c1 [Compound I-257] | < 500 | < 500 |  |  | < 500 | < 500 |
| Cn1cc(-c2cc(C(C)(C)O)ccc2Oc2cccc(N3CC(CN4C5CCC4CC(c4ncc(C(=O)N[C@H]6C(C)(C)[C@H](Oc7ccc(C#N)c(Cl)c7)C6(C)C)cn4)C5)C3)c2F)c2cc[nH]c2c1=O (some centres unmarked) [Compound I-258] | < 500 | 500 to 1500 |  |  | < 500 | < 500 |
| Cn1cc(-c2cc(C(C)(C)O)ccc2Oc2ccc(CCN3CC4(C3)CN(c3ncc(C(=O)N[C@H]5C(C)(C)[C@H](Oc6ccc(C#N)c(Cl)c6)C5(C)C)cn3)C4)cc2)c2cc[nH]c2c1=O [Compound I-259] | < 500 | 500 to 1500 | < 500 | < 500 |  |  |
| CCS(=O)(=O)c1ccc(Oc2ccc(CN3CC4(C3)CN(c3ncc(C(=O)N[C@H]5C(C)(C)[C@H](Oc6ccc(C#N)c(Cl)c6)C5(C)C)cn3)CCO4)cc2)c(-c2cn(C)c(=O)c3[nH]ccc23)c1 [Compound I-261] | < 500 | < 500 | < 500 | < 500 |  |  |
| CCS(=O)(=O)c1ccc(Oc2ccc(CCN3CC4(C3)CN(c3ncc(C(=O)N[C@H]5C(C)(C)[C@H](Oc6ccc(C#N)c(Cl)c6)C5(C)C)cn3)CCO4)cc2)c(-c2cn(C)c(=O)c3[nH]ccc23)c1 [Compound I-262] | < 500 | < 500 | < 500 | < 500 |  |  |
| CCS(=O)(=O)Cc1ccc(Oc2cccc(CCCCC3CCN(c4ncc(C(=O)N[C@H]5C(C)(C)[C@H](Oc6ccc(C#N)c(Cl)c6)C5(C)C)cn4)CC3)c2)c(-c2cn(C)c(=O)c3[nH]ccc23)c1 [Compound I-263] | < 500 | > 3000 |  |  | < 500 | < 500 |
| CCS(=O)(=O)c1ccc(Oc2cccc(CCN3CC4(C3)CN(c3ncc(C(=O)N[C@H]5C(C)(C)[C@H](Oc6ccc(C#N)c(Cl)c6)C5(C)C)cn3)CCO4)c2F)c(-c2cn(C)c(=O)c3[nH]ccc23)c1 [Compound I-264] | < 500 | < 500 |  |  | < 500 | < 500 |
| Cn1cc(-c2cc(C(C)(C)O)ccc2OCC(CCOC2CCN(c3ncc(C(=O)N[C@H]4C(C)(C)[C@H](Oc5ccc(C#N)c(Cl)c5)C4(C)C)cn3)CC2)C2CC2)c2cc[nH]c2c1=O (some centres unmarked) [Compound I-265] | < 500 | 500 to 1500 | 500 to 1500 | 1500 to 3000 |  |  |
| Cn1cc(-c2cc(C(C)(C)O)ccc2OC2CCC(N3CC(OC4CCN(c5ncc(C(=O)NC6C(C)(C)C(Oc7ccc(C#N)c(Cl)c7)C6(C)C)cn5)CC4)C3)C2)c2cc[nH]c2c1=O (centres unmarked) [Compound I-266, N-[3-(3-chloro-4-cyano-phenoxy)-2,2,4,4-tetramethyl-cyclobutyl]-2-[4-[1-[3-[4-(1-hydroxy-1-methyl-ethyl)-2-(6-methyl-7-oxo-1H-pyrrolo[2,3-c]pyridin-4-yl)phenoxy]cyclopentyl]azetidin-3-yl]oxy-1-piperidyl]pyrimidine-5-carboxamide] | < 500 | 1500 to 3000 |  |  | < 500 | 500 to 1500 |
| Cn1cc(-c2cc(C(C)(C)O)ccc2OCC2(C(=O)N3CC(OC4CCN(c5ncc(C(=O)N[C@H]6C(C)(C)[C@H](Oc7ccc(C#N)c(Cl)c7)C6(C)C)cn5)CC4)C3)CC2)c2cc[nH]c2c1=O [Compound I-267] | < 500 | 500 to 1500 | < 500 | 500 to 1500 |  |  |
